Assay results from patent US20240383856A1 (Zedira GmbH, priority 2021, published 2024).

Assays:
[1] = molecular target: T1, recombinant human transglutaminase 2 (Homo sapiens, UniProt P21980); assay: Transglutaminase assay (DCC-assay): incorporation of dansylcadaverine into dimethylcasein; format: biochemical; details: recombinant human TG2 10 nM; dansylcadaverine incorporation into dimethylcasein; read-out: IC50 TG2
T1 construct: purchased Zedira T022
T1 sequence (P21980 1-687): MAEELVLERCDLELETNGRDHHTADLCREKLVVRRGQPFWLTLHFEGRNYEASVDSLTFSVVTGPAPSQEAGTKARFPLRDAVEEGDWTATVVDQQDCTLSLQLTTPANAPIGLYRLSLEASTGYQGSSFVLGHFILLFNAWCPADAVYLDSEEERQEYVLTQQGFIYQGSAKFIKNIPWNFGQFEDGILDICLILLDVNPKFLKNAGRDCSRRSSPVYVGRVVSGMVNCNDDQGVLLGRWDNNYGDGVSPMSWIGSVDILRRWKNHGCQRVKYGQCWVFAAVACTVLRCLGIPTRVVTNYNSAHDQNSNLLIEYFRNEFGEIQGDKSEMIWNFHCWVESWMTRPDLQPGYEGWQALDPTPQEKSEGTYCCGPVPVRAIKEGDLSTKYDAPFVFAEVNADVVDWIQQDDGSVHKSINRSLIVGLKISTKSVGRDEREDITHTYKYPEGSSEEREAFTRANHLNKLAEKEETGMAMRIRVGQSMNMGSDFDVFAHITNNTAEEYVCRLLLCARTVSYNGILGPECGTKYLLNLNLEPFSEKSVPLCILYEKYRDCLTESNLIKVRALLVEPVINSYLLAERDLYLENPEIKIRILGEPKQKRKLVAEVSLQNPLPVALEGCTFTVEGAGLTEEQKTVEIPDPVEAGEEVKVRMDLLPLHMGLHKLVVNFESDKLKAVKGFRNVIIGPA
In short: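 IC50 is the inhibitor level that blocks 50% of initial activity. Activity is the fluorescence slope (λex 330, λem 500 nm) between 20 and 30 min of a 37 °C run, relative to a 2% DMSO control. The enzyme is recombinant human tissue transglutaminase, 10 nM final, tested against a 1:2 inhibitor dilution series in a pH 8.0 mix with 10 mM CaCl2, 10 mM glutathione, 16.7 µM dansylcadaverine and 4 µM N,N-dimethylcasein.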

[2] = logD by shake flask method (octanol / PBS pH 7.4, HPLC); format: physicochemical; details: octanol / PBS pH 7.4, shake flask
In short: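 LogD obtained by HPLC measurement of how the compound distributes between PBS (pH 7.4) and octanol in a shake-flask experiment.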

[3] = Caco-2 permeability assay (CacoReady kit); format: in vitro ADME; details: human, Caco-2, Caco-2 barrier, CacoReady kit; above 1×10^−6 cm/s classified as permeable
In short: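 Caco-2 monolayer barrier, commercial ready-to-use kit, manufacturer protocol. Read-out: Papp.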

IC50 [1] [nM] | logD [2] | Papp [3] [×10⁻⁶ cm/s] | SMILES
< 40 | 3 to 5 | < 1 | CNC(=O)C(=O)CC[C@H](NC(=O)c1oc2ccccc2c1C)C(=O)Nc1cccn(CC(=O)NC2C3CC4CC2CC(C)(C4)C3)c1=O (stereo partly drawn) [II-72, (S)-N1-(1-(2-(5-methyladamantane-2-amino)-2-oxoethyl)-2-oxo-1,2-dihydropyridin-3-yl)-N6-methyl-2-(3-methylbenzofuran-2-carboxamido)-5-oxohexanediamide]
40 to 400 | 1 to 3 | < 1 | CNC(=O)C(=O)CC[C@H](NC(=O)c1oc2ccccc2c1C)C(=O)Nc1cccn(CC(=O)NC2(C#N)C3CC4CC(C3)CC2C4)c1=O (stereo partly drawn) [II-73, (S)-N1-(1-(2-(2-carbonitrileadamantane-2-amino)-2-oxoethyl)-2-oxo-1,2-dihydropyridin-3-yl)-N6-methyl-2-(3-methylbenzofuran-2-carboxamido)-5-oxohexanediamide]
400 to 2500 | 1 to 3 | < 1 | CNC(=O)C(=O)CC[C@H](NC(=O)c1oc2ccccc2c1C)C(=O)Nc1cccn(CC(=O)NC2(C(=O)OC)C3CC4CC(C3)CC2C4)c1=O (stereo partly drawn) [II-74, (S)-N1-(1-(2-(2-methyladamantane-2-carboxylate-2-amino)-2-oxoethyl)-2-oxo-1,2-dihydropyridin-3-yl)-N6-methyl-2-(3-methylbenzofuran-2-carboxamido)-5-oxohexanediamide]
40 to 400 | 1 to 3 | < 1 | CNC(=O)C(=O)CC[C@H](NC(=O)c1oc2ccccc2c1C)C(=O)Nc1cccn(CC(=O)N[C@H]2C[C@H]3CC[C@@H]2C3)c1=O [II-90, (S)-N1-(1-(2-((1R,2S,4S)-bicyclo[2.2.1]heptan-2-ylamino)-2-oxoethyl)-2-oxo-1,2-dihydropyridin-3-yl)-N6-methyl-2-(3-methylbenzofuran-2-carboxamido)-5-oxohexanediamide]
40 to 400 | 1 to 3 | 1 to 10 | CNC(=O)C(=O)CC[C@H](NC(=O)c1oc2ccccc2c1C)C(=O)Nc1cccn(CC(=O)NC2C3CCC2CC3)c1=O (stereo partly drawn) [II-96, (S)-N1-(1-(2-(bicyclo[2.2.1]heptan-7-ylamino)-2-oxoethyl)-2-oxo-1,2-dihydropyridin-3-yl)-N6-methyl-2-(3-methylbenzofuran-2-carboxamido)-5-oxohexanediamide]
40 to 400 | 1 to 3 | 1 to 10 | CNC(=O)C(=O)CC[C@H](NC(=O)c1oc2ccccc2c1C)C(=O)Nc1cccn(CC(=O)NC2CC3CCC2CC3)c1=O (stereo partly drawn) [II-98, (2S)-N1-(1-(2-(bicyclo[2.2.2]octan-2-ylamino)-2-oxoethyl)-2-oxo-1,2-dihydropyridin-3-yl)-N6-methyl-2-(3-methylbenzofuran-2-carboxamido)-5-oxohexanediamide]
40 to 400 | 3 to 5 | 1 to 10 | CNC(=O)C(=O)CC[C@H](NC(=O)c1oc2ccccc2c1C)C(=O)Nc1cccn(CC(=O)N[C@@H]2C[C@H]3CC[C@]2(C)C3(C)C)c1=O [II-99, (S)-N1-methyl-5-(3-methylbenzofuran-2-carboxamido)-2-oxo-N6-(2-oxo-1-(2-oxo-2-((1R,2R,4R)-1,7,7-trimethylbicyclo[2.2.1]heptan-2-ylamino)ethyl)-1,2-dihydropyridin-3-yl)hexanediamide]
40 to 400 | 3 to 5 | 1 to 10 | CNC(=O)C(=O)CC[C@H](NC(=O)c1oc2ccccc2c1C)C(=O)Nc1cccn(CC(=O)N[C@H]2C[C@H]3C[C@@H]([C@@H]2C)C3(C)C)c1=O [II-101, (S)-N1-methyl-5-(3-methylbenzofuran-2-carboxamido)-2-oxo-N6-(2-oxo-1-(2-oxo-2-((1S,2S,3S,5R)-2,6,6-trimethylbicyclo[3.1.1]heptan-3-ylamino)ethyl)-1,2-dihydropyridin-3-yl)hexanediamide]
40 to 400 | 1 to 3 | 1 to 10 | CNC(=O)C(=O)CC[C@H](NC(=O)c1oc2ccccc2c1C)C(=O)Nc1cccn(CC(=O)NC23CCCC4CC(CCC42)C3)c1=O (stereo partly drawn) [II-103, (S)-N1-(1-(2-(4-homoisotwistane-3-amino)-2-oxoethyl)-2-oxo-1,2-dihydropyridin-3-yl)-N6-methyl-2-(3-methylbenzofuran-2-carboxamido)-5-oxohexanediamide]

Continued, molecule first:

SMILES | IC50 [1] [nM] | logD [2] | Papp [3] [×10⁻⁶ cm/s]
CNC(=O)C(=O)CC[C@H](NC(=O)c1oc2ccccc2c1C)C(=O)Nc1cccn(CC(=O)NC2C3CC4CC2CC(Cl)(C4)C3)c1=O (stereo partly drawn) [II-70, (S)-N1-(1-(2-(5-chloroadamantane-2-amino)-2-oxoethyl)-2-oxo-1,2-dihydropyridin-3-yl)-N6-methyl-2-(3-methylbenzofuran-2-carboxamido)-5-oxohexanediamide] | < 40 | 1 to 3 | 1 to 10
CNC(=O)C(=O)CC[C@H](NC(=O)c1oc2ccccc2c1C)C(=O)Nc1cccn(CC(=O)NC2C3CC4CC2CC(Br)(C4)C3)c1=O (stereo partly drawn) [II-71, (S)-N1-(1-(2-(5-bromoadamantane-2-amino)-2-oxoethyl)-2-oxo-1,2-dihydropyridin-3-yl)-N6-methyl-2-(3-methylbenzofuran-2-carboxamido)-5-oxohexanediamide] | < 40 | 1 to 3 | 1 to 10
CNC(=O)C(=O)CC[C@H](NC(=O)c1oc2ccccc2c1C)C(=O)Nc1cccn(CC(=O)NCC23CC4CC(CC(C4)C2)C3)c1=O [II-87, (S)-N1-(1-(2-(1-adamantylmethylamino)-2-oxoethyl)-2-oxo-1,2-dihydropyridin-3-yl)-N6-methyl-2-(3-methylbenzofuran-2-carboxamido)-5-oxohexanediamide] | 40 to 400 | 3 to 5 | 1 to 10
CNC(=O)C(=O)CC[C@H](NC(=O)c1cc2ccccc2o1)C(=O)Nc1cccn(CC(=O)NC(C)C23CC4CC(CC(C4)C2)C3)c1=O (stereo partly drawn) [II-88] | 40 to 400 | 3 to 5 | < 1
CNC(=O)C(=O)CC[C@H](NC(=O)c1oc2ccccc2c1C)C(=O)Nc1cccn(CC(=O)N[C@H]2C[C@H]3CC[C@@]2(C)C3(C)C)c1=O [II-92, (S)-N1-methyl-5-(3-methylbenzofuran-2-carboxamido)-2-oxo-N6-(2-oxo-1-(2-oxo-2-((1S,2S,4R)-1,7,7-trimethylbicyclo[2.2.1]heptan-2-ylamino)ethyl)-1,2-dihydropyridin-3-yl)hexanediamide] | 40 to 400 | 3 to 5 | 1 to 10
CNC(=O)C(=O)CC[C@H](NC(=O)c1oc2ccccc2c1C)C(=O)Nc1cccn(CC(=O)N[C@@H]2C[C@H]3CC[C@@H]2C3)c1=O [II-94, (S)-N1-(1-(2-((1R,2R,4S)-bicyclo[2.2.1]heptan-2-ylamino)-2-oxoethyl)-2-oxo-1,2-dihydropyridin-3-yl)-N6-methyl-2-(3-methylbenzofuran-2-carboxamido)-5-oxohexanediamide] | < 40 | 1 to 3 | 1 to 10
CNC(=O)C(=O)CC[C@H](NC(=O)c1oc2ccccc2c1C)C(=O)Nc1cccn(CC(=O)NC23CCC(CC2)C3)c1=O [II-95, (S)-N1-(1-(2-(bicyclo[2.2.1]heptan-1-ylamino)-2-oxoethyl)-2-oxo-1,2-dihydropyridin-3-yl)-N6-methyl-2-(3-methylbenzofuran-2-carboxamido)-5-oxohexanediamide] | 40 to 400 | 1 to 3 | 1 to 10
CNC(=O)C(=O)CC[C@H](NC(=O)c1oc2ccccc2c1C)C(=O)Nc1cccn(CC(=O)NC2CC3C=CC2C3)c1=O (stereo partly drawn) [II-97, (S)-N1-(1-(2-(bicyclo[2.2.1]hept-5-en-2-ylamino)-2-oxoethyl)-2-oxo-1,2-dihydropyridin-3-yl)-N6-methyl-2-(3-methylbenzofuran-2-carboxamido)-5-oxohexanediamide] | 40 to 400 | 1 to 3 | 1 to 10
CNC(=O)C(=O)CC[C@H](NC(=O)c1oc2ccccc2c1C)C(=O)Nc1cccn(CC(=O)N[C@@H]2C[C@@H]3C[C@H]([C@H]2C)C3(C)C)c1=O [II-100, (S)-N1-methyl-5-(3-methylbenzofuran-2-carboxamido)-2-oxo-N6-(2-oxo-1-(2-oxo-2-((1R,2R,3R,5S)-2,6,6-trimethylbicyclo[3.1.1]heptan-3-ylamino)ethyl)-1,2-dihydropyridin-3-yl)hexanediamide] | 40 to 400 | 3 to 5 | 1 to 10
